Experimental data taken from patent US9944659B2, “Boron-containing diacylhydrazine compounds” (Intrexon Corporation, priority 2014, dated 2018).
In brackets after ≈: the same amount, converted by molar mass. Where two headings read alike, the source gives them in different places.

Assay: Solubility (24 hrs equilibration at RT, HPLC-UV)
Assay type: physicochemical
Details: thermodynamic from solid, target concentration 5 mg/ml, 24 hrs at RT
Description: Representative Compounds of the Disclosure were tested for solubity (Table 4) as follows:
0.1 M Phosphate Buffer Ionic Strength ˜0.15M
Simulated Intestinal Fluid pH 7.5 (USP)
Weigh ˜2 mgs of compound into clean glass 1 dram vails.
Add ˜[…] of appropriate media to vial to yield a target concentration of 5 mg/ml.
Place vials on a rotating shaker and equilibrate for 24 hrs. at RT.
Remove supernatant to microcentrifuge tubes and centrifuge at 1300 rpm for 30 minutes.
Remove an aliquot of supernatant, dilute accordingly with acetonitrile.
Assay Samples by HPLC-UV Against Standards.

[1] = biorelevant, Simulated Intestinal Fluid pH 7.5 (USP), read-out: Solubility SIF
[2] = pH 7.4, aqueous buffer, 0.1 M Phosphate Buffer, read-out: Solubility pH 7.4

| SMILES | solubility at 24 h [1] [µg/mL] | solubility at 24 h [2] [µg/mL] |
| --- | --- | --- |
| Cc1cc(C)cc(C(=O)N(NC(=O)c2ccc3c(c2)B(O)ON=C3)C(C)(C)C)c1 [compound 20, N′-(tert-butyl)-N′-(3,5-dimethylbenzoyl)-1-hydroxy-1H-benzo[d][1,2,6]oxazaborinine-7-carbohydrazide] | 3330 (≈ 8470 µM) | 2680 (≈ 6820 µM) |
| Cc1cc(C)cc(C(=O)N(NC(=O)c2ccc3c(c2)B(O)NCC3)C(C)(C)C)c1 [compound 18, N′-(tert-butyl)-N′-(3,5-dimethylbenzoyl)-1-hydroxy-1,2,3,4-tetrahydrobenzo[c][1,2]azaborinine-7-carbohydrazide] | 492 (≈ 1250 µM) | 505 (≈ 1280 µM) |
| Cc1cc(C)cc(C(=O)N(NC(=O)c2ccc3c(c2)N=COB3O)C(C)(C)C)c1 [compound 3, N′-(tert-butyl)-N′-(3,5-dimethylbenzoyl)-1-hydroxy-1H-benzo[c][1,5,2]oxazaborinine-6-carbohydrazide] | 90.2 (≈ 229 µM) | 39.4 (≈ 100 µM) |
| Cc1cc(C)cc(C(=O)N(NC(=O)c2ccc3c(c2)NC(=S)N(c2ccccc2)B3O)C(C)(C)C)c1 [compound 4, N′-(tert-butyl)-N′-(3,5-dimethylbenzoyl)-1-hydroxy-2-phenyl-3-thioxo-1,2,3,4-tetrahydrobenzo[c][1,5,2]diazaborinine-6-carbohydrazide] | 2640 (≈ 5280 µM) | 3560 (≈ 7120 µM) |
| COc1cccc(C(=O)NN(C(=O)c2ccc3c(c2)NC(=O)N(c2ccccc2)B3O)C(C)(C)C)c1C [compound 15, N-(tert-butyl)-1-hydroxy-N′-(3-methoxy-2-methylbenzoyl)-3-oxo-2-phenyl-1,2,3,4-tetrahydrobenzo[c][1,5,2]diazaborinine-6-carbohydrazide] | 417 (≈ 833 µM) | 540 (≈ 1080 µM) |
| COc1cccc(C(=O)NN(C(=O)c2ccc3c(c2)B(O)NC3)C(C)(C)C)c1C [compound 9, N-(tert-butyl)-1-hydroxy-N′-(3-methoxy-2-methylbenzoyl)-2,3-dihydro-1H-benzo[c][1,2]azaborole-6-carbohydrazide] | 4510 (≈ 11400 µM) | 4920 (≈ 12400 µM) |
| Cc1cc(C)cc(C(=O)NNC(=O)c2ccc3c(c2)N=C(C(F)(F)F)OB3O)c1 [compound 6, N′-(3,5-dimethylbenzoyl)-1-hydroxy-3-(trifluoromethyl)-1H-benzo[c][1,5,2]oxazaborinine-6-carbohydrazide] | 0.4 (≈ 0.987 µM) | 1.7 (≈ 4.2 µM) |
| Cc1cc(C)cc(C(=O)N(NC(=O)c2ccc3c(c2)B(O)NC3)C(C)(C)C)c1 [compound 1, N′-(tert-butyl)-N′-(3,5-dimethylbenzoyl)-1-hydroxy-2,3-dihydro-1H-benzo[c][1,2]azaborole-6-carbohydrazide] | 4870 (≈ 12900 µM) | > 5000 |
| Cc1cc(C)cc(C(=O)N(NC(=O)c2ccc(B(O)O)c(NS(=O)(=O)c3ccccc3)c2)C(C)(C)C)c1 [compound 7, (4-(2-(tert-butyl)-2-(3,5-dimethylbenzoyl)hydrazine-1-carbonyl)-2-(phenylsulfonamido)phenyl)boronic acid] | 10.7 (≈ 20.4 µM) | 4.1 (≈ 7.83 µM) |

Second part, the compound after the results:

| solubility at 24 h [1] [µg/mL] | solubility at 24 h [2] [µg/mL] | SMILES |
| --- | --- | --- |
| 4800 (≈ 11700 µM) | 4870 (≈ 11800 µM) | CNCc1ccc(C(=O)NN(C(=O)c2cc(C)cc(C)c2)C(C)(C)C)cc1B(O)O [compound 10, (5-(2-(tert-butyl)-2-(3,5-dimethylbenzoyl)hydrazine-1-carbonyl)-2-((methylamino)methyl)phenyl)boronic acid] |
| 334 (≈ 815 µM) | 221 (≈ 540 µM) | COc1cccc(C(=O)NN(C(=O)c2ccc3c(c2)N=COB3O)C(C)(C)C)c1C [compound 13, N-(tert-butyl)-1-hydroxy-N′-(3-methoxy-2-methylbenzoyl)-1H-benzo[c][1,5,2]oxazaborinine-6-carbohydrazide] |
| 31.4 (≈ 77.1 µM) | 16.8 (≈ 41.2 µM) | Cc1cc(C)cc(C(=O)N(NC(=O)c2ccc(CC#N)c(B(O)O)c2)C(C)(C)C)c1 [compound 19, (5-(2-(tert-butyl)-2-(3,5-dimethylbenzoyl)hydrazine-1-carbonyl)-2-(cyanomethyl)phenyl)boronic acid] |
| 24.1 (≈ 44.7 µM) | 6.9 (≈ 12.8 µM) | COc1cccc(C(=O)NN(C(=O)c2ccc(B(O)O)c(NS(=O)(=O)c3ccccc3)c2)C(C)(C)C)c1C [compound 16, (4-(1-(tert-butyl)-2-(3-methoxy-2-methylbenzoyl)hydrazine-1-carbonyl)-2-(phenylsulfonamido)phenyl)boronic acid] |
| 3800 (≈ 8970 µM) | 3760 (≈ 8880 µM) | COc1cccc(C(=O)NN(C(=O)c2ccc3c(c2)N=C(C)OB3O)C(C)(C)C)c1C [compound 12, N-(tert-butyl)-1-hydroxy-N′-(3-methoxy-2-methylbenzoyl)-3-methyl-1H-benzo[c][1,5,2]oxazaborinine-6-carbohydrazide] |
| 4050 (≈ 9940 µM) | 4310 (≈ 10600 µM) | CC1=Nc2cc(C(=O)NN(C(=O)c3cc(C)cc(C)c3)C(C)(C)C)ccc2B(O)O1 [compound 2, N′-(tert-butyl)-N′-(3,5-dimethylbenzoyl)-1-hydroxy-3-methyl-1H-benzo[c][1,5,2]oxazaborinine-6-carbohydrazide] |
| 121 (≈ 305 µM) | 42.3 (≈ 107 µM) | COc1cccc(C(=O)NN(C(=O)c2ccc3c(c2)B(O)OC3)C(C)(C)C)c1C [compound 8, N-(tert-butyl)-1-hydroxy-N′-(3-methoxy-2-methylbenzoyl)-1,3-dihydrobenzo[c][1,2]oxaborole-6-carbohydrazide] |
| 59.3 (≈ 140 µM) | 0.13 (≈ 0.308 µM) | Cc1cc(C)cc(C(=O)N(NC(=O)c2ccc(B(O)O)c(NCC#N)c2)C(C)(C)C)c1 [compound 17, (4-(2-(tert-butyl)-2-(3,5-dimethylbenzoyl)hydrazine-1-carbonyl)-2-((cyanomethyl)amino)phenyl)boronic acid] |
| 4650 (≈ 10900 µM) | 4700 (≈ 11100 µM) | Cc1cc(C)cc(C(=O)N(NC(=O)c2ccc(CN(C)C)c(B(O)O)c2)C(C)(C)C)c1 [compound 11, (5-(2-(tert-butyl)-2-(3,5-dimethylbenzoyl)hydrazine-1-carbonyl)-2-((dimethylamino)methyl)phenyl)boronic acid] |
